Source: ChEMBL document CHEMBL3885861, “Open TG-GATES”

Species: Rattus norvegicus
Assay: Open TG-GATES - Regimen: Single
Format: toxicity, organism-based, Sprague-Dawley
Design: regimen Single, gender Male, age 6 weeks
Conditions: in vivo, po, 60 mg/kg, route gavage, dose level High; for APTT / Bas / Eos / Fbg / Hb / Ht / Lym / MCH / MCHC / MCV / Mono / Neu / PT / Plat / RBC / Ret / WBC: tissue Blood; for KIDNEY_L / KIDNEY_R / KIDNEY_TOTAL: tissue Kidney; for LIVER: tissue Liver; for A/G / ALP / ALT / AST / BUN / CRE / Ca / Cl / DBIL / GLC / IP / K / LDH / Na / PL / RALB / TBIL / TC / TG / TP / gamma-GTP: tissue Plasma

In the case of CC(C)NNC(=O)c1ccncc1 [IPRONIAZID], the TERMINAL_BW (3 h) is reported as 204.9 g, the APTT (3 h) is reported as 22.1 s and the Bas (3 h) is reported as 0%. The Eos (3 h) was 1%, the Fbg (3 h) was 294 mg/dL and the Hb (3 h) was 12.7 g/dL. For the same compound, the Ht (3 h) was 37%, the Lym (3 h) was 74.8% and the MCH (3 h) was 20.9 pg. For the same compound, the MCHC (3 h) was 34.2%, the MCV (3 h) was 61 fL and the Mono (3 h) was 2%. The Neu (3 h) was 21.8%, the PT (3 h) was 16.2 s and the Plat (3 h) was 124.5 x10_4/uL. The RBC (3 h) was 608.8 x10_4/ul, the Ret (3 h) was 7.9% and the WBC (3 h) was 90.6 x10_2/uL. It also gave a KIDNEY_L (3 h) of 1 g, a KIDNEY_R (3 h) of 1 g and a KIDNEY_TOTAL (3 h) of 1.9 g. The LIVER (3 h) was 8.8 g, the A/G (3 h) was 1.3 and the ALP (3 h) was 1312.5 IU/L. It also gave an ALT (3 h) of 35 IU/L, an AST (3 h) of 72.2 IU/L and a BUN (3 h) of 12 mg/dL. It also gave a CRE (3 h) of 0.2 mg/dL, a Ca (3 h) of 10.5 mg/dL and a Cl (3 h) of 105.8 meq/L. The DBIL (3 h) was 0 mg/dL, the GLC (3 h) was 180.5 mg/dL and the IP (3 h) was 9.8 mg/dL. The K (3 h) was 4 meq/L, the LDH (3 h) was 221.5 IU/L and the Na (3 h) was 141.2 meq/L. For the same compound, the PL (3 h) was 136 mg/dL, the RALB (3 h) was 2.9 g/dL and the TBIL (3 h) was 0 mg/dL. For the same compound, the TC (3 h) was 78 mg/dL, the TG (3 h) was 34.8 mg/dL and the TP (3 h) was 5.2 g/dL. For the same compound, the gamma-GTP (3 h) was 1 IU/L, the TERMINAL_BW (6 h) was 212.4 g and the APTT (6 h) was 21.7 s. The Bas (6 h) was 0%, the Eos (6 h) was 0.8% and the Fbg (6 h) was 325.8 mg/dL. The Hb (6 h) was 13 g/dL, the Ht (6 h) was 38% and the Lym (6 h) was 72.2%. The MCH (6 h) was 21 pg, the MCHC (6 h) was 34.3% and the MCV (6 h) was 61.4 fL. It also gave a Mono (6 h) of 2%, a Neu (6 h) of 23.8% and a PT (6 h) of 15.6 s. It also gave a Plat (6 h) of 125.7 x10_4/uL, an RBC (6 h) of 619.8 x10_4/ul and a Ret (6 h) of 8%. It also gave a WBC (6 h) of 79.9 x10_2/uL, a KIDNEY_L (6 h) of 0.9 g and a KIDNEY_R (6 h) of 0.9 g. For the same compound, the KIDNEY_TOTAL (6 h) was 1.8 g, the LIVER (6 h) was 9.2 g and the A/G (6 h) was 1.3. For the same compound, the ALP (6 h) was 1181.8 IU/L, the ALT (6 h) was 35 IU/L and the AST (6 h) was 75.4 IU/L. It also gave a BUN (6 h) of 8.8 mg/dL, a CRE (6 h) of 0.1 mg/dL and a Ca (6 h) of 10.8 mg/dL. For the same compound, the Cl (6 h) was 106.8 meq/L, the DBIL (6 h) was 0.002 mg/dL and the GLC (6 h) was 180 mg/dL. The IP (6 h) was 9.9 mg/dL, the K (6 h) was 4.1 meq/L and the LDH (6 h) was 237.8 IU/L. For the same compound, the Na (6 h) was 142 meq/L, the PL (6 h) was 159.2 mg/dL and the RALB (6 h) was 3 g/dL. For the same compound, the TBIL (6 h) was 0.002 mg/dL, the TC (6 h) was 93.6 mg/dL and the TG (6 h) was 44.6 mg/dL. It also gave a TP (6 h) of 5.5 g/dL, a gamma-GTP (6 h) of 1.4 IU/L and a TERMINAL_BW (9 h) of 196.4 g. The APTT (9 h) was 22.5 s, the Bas (9 h) was 0% and the Eos (9 h) was 1%. The Fbg (9 h) was 320.6 mg/dL, the Hb (9 h) was 13 g/dL and the Ht (9 h) was 37.9%. The Lym (9 h) was 76%, the MCH (9 h) was 20 pg and the MCHC (9 h) was 34.3%. It also gave an MCV (9 h) of 58.3 fL, a Mono (9 h) of 1.4% and a Neu (9 h) of 21%. The PT (9 h) was 15.9 s, the Plat (9 h) was 121.4 x10_4/uL and the RBC (9 h) was 650.4 x10_4/ul. The Ret (9 h) was 6.3%, the WBC (9 h) was 55.2 x10_2/uL and the KIDNEY_L (9 h) was 0.9 g. It also gave a KIDNEY_R (9 h) of 0.9 g, a KIDNEY_TOTAL (9 h) of 1.8 g and an LIVER (9 h) of 8 g. It also gave an A/G (9 h) of 1.2, an ALP (9 h) of 1174.6 IU/L and an ALT (9 h) of 27.2 IU/L. For the same compound, the AST (9 h) was 65 IU/L, the BUN (9 h) was 7.6 mg/dL and the CRE (9 h) was 0.2 mg/dL. For the same compound, the Ca (9 h) was 10.4 mg/dL, the Cl (9 h) was 107 meq/L and the DBIL (9 h) was 0.006 mg/dL. For the same compound, the GLC (9 h) was 184.6 mg/dL, the IP (9 h) was 9.4 mg/dL and the K (9 h) was 4 meq/L. The LDH (9 h) was 176.2 IU/L, the Na (9 h) was 142.2 meq/L and the PL (9 h) was 139.6 mg/dL. It also gave an RALB (9 h) of 3.1 g/dL, a TBIL (9 h) of 0.004 mg/dL and a TC (9 h) of 84.4 mg/dL. It also gave a TG (9 h) of 30.4 mg/dL, a TP (9 h) of 5.6 g/dL and a gamma-GTP (9 h) of 1 IU/L. The TERMINAL_BW (24 h) was 208.5 g, the APTT (24 h) was 21.7 s and the Bas (24 h) was 0%. It also gave an Eos (24 h) of 1%, a Fbg (24 h) of 336.8 mg/dL and a Hb (24 h) of 13.6 g/dL. It also gave a Ht (24 h) of 39.4%, a Lym (24 h) of 80.6% and an MCH (24 h) of 21.3 pg. It also gave an MCHC (24 h) of 34.5%, an MCV (24 h) of 61.8 fL and a Mono (24 h) of 2.4%. It also gave a Neu (24 h) of 14.8%, a PT (24 h) of 15.4 s and a Plat (24 h) of 119.6 x10_4/uL. The RBC (24 h) was 637.4 x10_4/ul, the Ret (24 h) was 7.5% and the WBC (24 h) was 66.9 x10_2/uL. It also gave a KIDNEY_L (24 h) of 0.9 g, a KIDNEY_R (24 h) of 1 g and a KIDNEY_TOTAL (24 h) of 1.9 g. It also gave an LIVER (24 h) of 9.2 g, an A/G (24 h) of 1.3 and an ALP (24 h) of 1223.4 IU/L. For the same compound, the ALT (24 h) was 37 IU/L, the AST (24 h) was 74.4 IU/L and the BUN (24 h) was 14 mg/dL. The CRE (24 h) was 0.2 mg/dL, the Ca (24 h) was 10.6 mg/dL and the Cl (24 h) was 107 meq/L. For the same compound, the DBIL (24 h) was 0.002 mg/dL, the GLC (24 h) was 187.6 mg/dL and the IP (24 h) was 7.8 mg/dL. For the same compound, the K (24 h) was 4.1 meq/L, the LDH (24 h) was 240.4 IU/L and the Na (24 h) was 142.6 meq/L. The PL (24 h) was 148.6 mg/dL, the RALB (24 h) was 3.1 g/dL and the TBIL (24 h) was 0.02 mg/dL. The TC (24 h) was 91 mg/dL, the TG (24 h) was 60.6 mg/dL and the TP (24 h) was 5.6 g/dL. The gamma-GTP (24 h) was 1.6 IU/L.
